Measured values reported in patent US20230051589A1, “COMPOUNDS AND COMPOSITIONS FOR TREATING CONDITIONS ASSOCIATED WITH NLRP ACTIVITY” (Novartis AG, priority 2018, published 2023).

Test system: IL-1β production in PMA-differentiated THP-1 cells
Assay: IL-1β production in PMA-differentiated THP-1 cells stimulated with gramicidin (hTHP-1 assay, 2% fetal bovine serum; Procedures 1-3)
Format: cell-based, human
Settings: Homo sapiens, THP-1, Table B1; hTHP-1 assay containing 2% fetal bovine serum, gramicidin stimulation, IL-1β readout; read-out: hTHP-1 IC50 (average)
How it was run: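 PMA-primed THP-1 cells (20 ng/ml PMA, 16-18 h) in RPMI with 2% FBS were pre-incubated with compounds for 1 h, from 100 μM downward in 3-fold steps (0.37% DMSO final), then stimulated with 5 μM gramicidin for 2 h. IL-1β in the supernatant was quantified by HTRF.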

| IC50 [nM] | Compound |
| --- | --- |
| > 30000 | CCc1ccc2cn(C)nc2c1NC(=O)N=S(N)(=O)c1ncc(C(C)(C)O)s1 (single isomer, unassigned) [Example 329, (S) or (R)-N′-((6-ethyl-2-methyl-2H-indazol-7-yl)-carbamoyl)-5-(2-hydroxy-propan-2-yl)thiazole-2-sulfonimidamide] |

Same assay, conditions: Homo sapiens, THP-1, Table B3; hTHP-1 assay containing 2% fetal bovine serum, gramicidin stimulation, IL-1β readout; read-out: hTHP-1 IC50

| IC50 [nM] | Compound |
| --- | --- |
| 40 to 200 | NS(=O)(=NC(=O)Nc1c2c(cc3c1CC3)CCC2)c1nn(C(F)F)cc1F (stereo not shown) [compound 734, 1-(Difluoromethyl)-4-fluoro-N′-((2,4,5,6-tetrahydro-1H-cyclobuta[f]inden-3-yl)carbamoyl)-1H-pyrazole-3-sulfonimidamide] |
| 5000 to 30000 | C[C@](O)(COCCOCCOCCOCCO)c1ncc(S(N)(=O)=NC(=O)Nc2c3c(cc4c2CCC4)CCC3)s1 (stereo partly drawn) [Example 750, 2-((S)-1,14-dihydroxy-3,6,9,12-tetraoxapentadecan-14-yl)-N′-((1,2,3,5,6,7-hexahydro-s-indacen-4-yl)carbamoyl)thiazole-5-sulfonimidamide] |
| 5000 to 30000 | CN1CCC(c2ccc(S(N)(=O)=NC(=O)Nc3c4c(cc5c3CCC5)CCC4)c(F)c2)C1 (stereo not shown) [compound 776, 2-Fluoro-N′-((1,2,3,5,6,7-hexahydro-s-indacen-4-yl)carbamoyl)-4-(1-methylpyrrolidin-3-yl)benzenesulfonimidamide] |

Same assay, conditions: Homo sapiens, THP-1, hTHP-1 assay containing 2% fetal bovine serum, Table B2, class symbols; read-out: IC50

| IC50 [nM] | Compound |
| --- | --- |
| 8 to 40 | C[C@@](O)(CO)c1ncc([S@@](N)(=O)=NC(=O)Nc2c3c(cc4c2CC4)CCC3)s1 [Compound 919b] |
| 200 to 1000 | CC(C)(O)c1ccc(S(N)(=O)=NC(=O)Nc2c3c(c(C#N)c4c2CCC4)CCC3)cn1 (stereo not shown) [Example 470, N′-((8-cyano-1,2,3,5,6,7-hexahydro-s-indacen-4-yl)carbamoyl)-6-(2-hydroxypropan-2-yl)pyridine-3-sulfonimidamide] |
| 1000 to 5000 | CNCC(C)(C)c1ccc(S(N)(=O)=NC(=O)Nc2c3c(cc4c2CCC4)CCC3)cc1 (stereo not shown) [compound 496, N′-((1,2,3,5,6,7-hexahydro-s-indacen-4-yl)carbamoyl)-4-(2-methyl-1-(methylamino)propan-2-yl)benzenesulfonimidamide] |

Second part, the compound before the results:

| Compound | IC50 [nM] |
| --- | --- |
| CC(C)(O)c1ccc(S(N)(=O)=NC(=O)Nc2c3c(cc4c2C(=O)CC4)CCC3)cn1 (stereo not shown) [Example 469, 6-(2-Hydroxypropan-2-yl)-N′-((3-oxo-1,2,3,5,6,7-hexahydro-s-indacen-4-yl)carbamoyl)pyridine-3-sulfonimidamide] | 1000 to 5000 |
| CC(C)(O)c1cccc(S(N)(=O)=NC(=O)Nc2c3c(cc4c2CCC4)CCC3)n1 (stereo not shown) [Compound 895] | 1000 to 5000 |
| CN1CCC(c2ccc(S(N)(=O)=NC(=O)Nc3c4c(cc5c3CCC5)CCC4)c(F)c2)C1 (stereo not shown) [Compound 899] | 5000 to 30000 |
| CCn1ccc([S@](N)(=O)=NC(=O)Nc2c3c(cc4c2CC4)CCC3)n1 [Compound 916a] | 40 to 200 |
| CC(C)(O)c1csc(S(N)(=O)=NC(=O)Nc2c3c(c(C#N)c4c2CCC4)CCC3)n1 (stereo not shown) [Example 499, N′-((8-Cyano-1,2,3,5,6,7-hexahydro-s-indacen-4-yl)carbamoyl)-4-(2-hydroxypropan-2-yl)thiazole-2-sulfonimidamide] | 40 to 200 |

Same assay, conditions: Table B1; hTHP-1 assay containing 2% fetal bovine serum, gramicidin stimulation, IL-1β readout; read-out: hTHP-1 IC50 (average)

| IC50 [nM] | Compound |
| --- | --- |
| 1000 to 5000 | CC(C)(O)c1ncc(S(N)(=O)=NC(=O)Nc2c3c(cc4c2CC4)CCC3)s1 [Example 225, (R)- and (S)-2-(2-hydroxypropan-2-yl)-N′-((2,4,5,6-tetrahydro-1H-cyclobuta[f]inden-3-yl)carbamoyl)thiazole-5-sulfonimidamide] |
| 1000 to 5000 | CC(=O)N(C)Cc1ccc(S(N)(=O)=NC(=O)Nc2c3c(cc4c2CCC4)CCC3)cc1 (single isomer, unassigned) [Example 366, (R) or (S)-N-(4-N′-((1,2,3,5,6,7-hexahydro-s-indacen-4-yl)carbamoyl)-sulfamidimidoyl)benzyl)-N-methylacetamide] |
| 200 to 1000 | CC(C)(O)c1ncc(S(N)(=O)=NC(=O)Nc2c3c(cc4c2CCC4)CCC3)s1 (single isomer, unassigned) [Example 5] |

Same assay, conditions: Table B3; hTHP-1 assay containing 2% fetal bovine serum, gramicidin stimulation, IL-1β readout; read-out: hTHP-1 IC50

| IC50 [nM] | Compound |
| --- | --- |
| 1000 to 5000 | NS(=O)(=NC(=O)Nc1c2c(cc3c1CC3)CCC2)c1cc2c(s1)CCN(CC(F)F)C2 (single isomer, unassigned) [Example 872, (R) or (S) -5-(2,2-difluoroethyl)-N′-((2,4,5,6-tetrahydro-1H-cyclobuta[f]inden-3-yl)carbamoyl)-4,5,6,7-tetrahydrothieno[3,2-c]pyridine-2-sulfonimidamide] |
| 40 to 200 | C[C@@](O)(CO)c1nc(CO)c(S(N)(=O)=NC(=O)Nc2c3c(cc4c2CCC4)CCC3)s1 (stereo partly drawn) [Example 754, 2-((R)-1,2-dihydroxypropan-2-yl)-N′-((1,2,3,5,6,7-hexahydro-s-indacen-4-yl)carbamoyl)-4-(hydroxymethyl)thiazole-5-sulfommidamide] |
| 200 to 1000 | NS(=O)(=NC(=O)Nc1c2c(cc3c1CCC3)CCC2)c1ccc(C2CCN2)cc1 (stereo not shown) [Example 863, (S/R, R)-4-(azetidin-2-yl)-N′-((1,2,3,5,6,7-hexahydro-s-indacen-4-yl)carbamoyl)benzenesulfonimidamide] |

Further lines, the compound ahead of its results:

| Compound | IC50 [nM] |
| --- | --- |
| NS(=O)(=NC(=O)Nc1c2c(cc3c1CC3)CCC2)c1sc2c(c1F)CNCC2 (single isomer, unassigned) [Example 834, (S) or (R)-3-fluoro-N′-((2,4,5,6-tetrahydro-1H-cyclobuta[f]inden-3-yl)carbamoyl)-4,5,6,7-tetrahydrothieno[3,2-c]pyridine-2-sulfonimidamide] | 200 to 1000 |
| NS(=O)(=NC(=O)Nc1c2c(cc3c1CCC3)CCC2)c1ccc([C@H]2CCCN2)s1 (single isomer, unassigned) [Example 823, (R) or (S) -N′-((1,2,3,5,6,7-hexahydro-s-indacen-4-yl)carbamoyl)-5-((R)-pyriolidin-2-yl)thiophene-2-sulfonimidamide] | 200 to 1000 |
| CNCc1csc(S(N)(=O)=NC(=O)Nc2c3c(cc4c2CC4)CCC3)c1 (single isomer, unassigned) [Example 837, (R) or (S)-4-((methylamino)methyl)-N′-((2,4,5,6-tetrahydro-1H-cyclobuta[f]inden-3-yl)carbamoyl)thiophene-2-sulfonimidamide] | 40 to 200 |
| NS(=O)(=NC(=O)Nc1c2c(cc3c1CC3)CCC2)c1cc2c(s1)CCN[C@H]2C(F)F (single isomer, unassigned) [Example 876, (R or S,4R)-4-(difluoromethyl)-N′-((2,4,5,6-tetrahydro-1H-cyclobuta[f]inden-3-yl)carbamoyl)-4,5,6,7-tetrahydrothieno[3,2-c]pyridine-2-sulfonimidamide] | 40 to 200 |

Same assay, conditions: hTHP-1 assay containing 2% fetal bovine serum, Table B2, class symbols; read-out: IC50

| IC50 [nM] | Compound |
| --- | --- |
| 40 to 200 | NS(=O)(=NC(=O)Nc1c2c(cc3c1CCC3)CCC2)c1cnn2c1OCCC2 (single isomer, unassigned) [Example 569, (R) or (S)-N′-((1,2,3,5,6,7-hexahydro-s-indacen-4-yl)caramoyl)-6,7-dihydro-5H-pyrazolo[5,1 - b][1,3]oxazine-3-sulfonimidamide] |
| 1000 to 5000 | CN(C)Cc1cnc(S(N)(=O)=NC(=O)Nc2c3c(cc4c2CCC4)CCC3)c(F)c1 (single isomer, unassigned) [Example 518, (R) or (S)-5-((dimethylamino)methyl)-3-fluoro-N′-((1,2,3,5,6,7-hexahydro-s-indacen-4-yl)carbamoyl) pyridine-2-sulfonimidamide] |
| 8 to 40 | Cc1c(C2CC2)cc2c(c1NC(=O)N=[S@@](N)(=O)c1cc(C(C)(C)O)cs1)CCC2 (single isomer, unassigned) [Example 498, (R) or (S)-N′-((6-cyclopropyl-5-methyl-2,3-dihydro-1H-inden-4-yl)carbamoyl)-4-(2-hydroxyprepan-2-yl)thiophene-2-sulfonimidamide] |

The next lines start with the compound.

| Compound | IC50 [nM] |
| --- | --- |
| COc1ccc(Cn2nc(S(N)(=O)=NC(=O)Nc3c4c(cc5c3CCC5)CCC4)cc2C(C)(C)O)cc1 (stereo not shown) [Example 457, N′-((1,2,3,5,6,7-hexahydro-s-indacen-4-yl)carbamoyl)-5-(2-hydroxypropan-2-yl)-1-(4-methoxybenzyl)-1H-pyrazole-3-sulfonimidamide] | 200 to 1000 |
| CC(C)(O)c1cnc(S(N)(=O)=NC(=O)Nc2c3c(cc4c2CCC4=O)CCC3)s1 (stereo not shown) [Example 455, 5-(2-Hydroxypropan-2-yl)-N′-((1-oxo-1,2,3,5,6,7-hexahydro-s-indacen-4-yl)carbamoyl)thiazole-2-sulfonimidamide] | 1000 to 5000 |
| CNC(C)(C)c1ccc(S(N)(=O)=NC(=O)Nc2c3c(cc4c2CCC4)CCC3)cc1 (single isomer, unassigned) [Example 603, (R) or (S)-N′-((1,2,3,5,6,7-hexahydro-s-indacen-4-yl)carbamoyl)-4-(2-(methylamino)propan-2-yl) benzenesulfonimidamide] | 5000 to 30000 |
| (S)- and (R)-3-Fluoro-5-((methylamino)methyl)-N′-((2,4,5,6-tetrahydro-1H-cyclobuta[f]inden-3-yl)carbamoyl)thiophene-2-sulfonimidamide [Example 670] | 40 to 200 |
| NS(=O)(=NC(=O)Nc1c2c(cc3c1CCC3)CCC2)c1ccc(C2CCCN2)cc1 (single isomer, unassigned) [Example 650, (R,S) or (S,S)-N′-((1,2,3,5,6,7-hexahydro-s-indacen-4-yl)carbamoyl)-4-(pyrrolidin-2-yl) benzenesulfonimidamide] | 5000 to 30000 |
| CC(C)(O)c1cc(C#N)cc(S(N)(=O)=NC(=O)Nc2c3c(c(C#N)c4c2CCC4)CCC3)c1 (single isomer, unassigned) [Example 579, (S) or (R)-3-cyano-N′-((8-cyano-1,2,3,5,6,7-hexahydro-5-indacen-4-yl)carbamoyl)-5-(2-hydroxypropan-2-yl) benzenesulfonimidamide] | 5000 to 30000 |
